“And” between values parts separate entries of the source, which are not always exact repeats. Equal entries are not always repeated. Toxic doses and inconclusive results are not listed. How the source made its calls: active means survival T/C of 150% or more; inactive means T/C below 125% in these data.
Test system: P388 leukemia ip, CD2F1 mice, survival T/C
Test: NCI In Vivo Anticancer Drug Screen. Data for tumor model P388 Leukemia (intraperitoneal) in CD2F1 (CDF1) mice
Settings: endpoint: median survival time, higher = longer survival
Summary of the method: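 Mice carrying the transplanted tumor received test compound or vehicle. Survival was recorded in each group, and the value is the treated-group measurement divided by that of the vehicle-treated control group.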

[1] = dose: 12.5 mg/kg/injection, schedule: Q01DX009 (ip), vehicle: Klucel (hydroxypropylcellulose) (HPC)
[2] = dose: 25.0 mg/kg/injection, schedule: Q01DX009 (ip), vehicle: Klucel (hydroxypropylcellulose) (HPC)

Measured: T/C

S=C(Nc1nccs1)Nc1nccs1
inactive: dose: 3.13 mg/kg/injection, schedule: Q01DX009 (ip), vehicle: Klucel (hydroxypropylcellulose) (HPC) 98 % of control | dose: 6.25 mg/kg/injection, schedule: Q01DX009 (ip), vehicle: Klucel (hydroxypropylcellulose) (HPC) 98 % of control | [1] 95 % of control | [2] 92 % of control

CC(c1ccccc1)c1cc(C(C)(C)C)cc(C(C)(C)C)c1O (stereo unspecified)
inactive: dose: 50.0 mg/kg/injection, schedule: Q01DX005 (ip), vehicle: distilled water + alcohol 96 % of control | dose: 100.0 mg/kg/injection, schedule: Q01DX005 (ip), vehicle: distilled water + alcohol 100 % of control | dose: 200.0 mg/kg/injection, schedule: Q01DX005 (ip), vehicle: distilled water + alcohol 99 % of control

CCOC(=O)c1cnc(SC)n(-c2c(Cl)cccc2Cl)c1=O
inactive: dose: 50.0 mg/kg/injection, schedule: Q01DX005 (ip), vehicle: Klucel (hydroxypropylcellulose) (HPC) 98 % of control | dose: 100.0 mg/kg/injection, schedule: Q01DX005 (ip), vehicle: Klucel (hydroxypropylcellulose) (HPC) 97 % of control | dose: 200.0 mg/kg/injection, schedule: Q01DX005 (ip), vehicle: Klucel (hydroxypropylcellulose) (HPC) 99 % of control

ClC1CCC[N-]C1.ClC1CCC[N-]C1.[Cl][Pt+2][Cl] (stereo unspecified)
inactive: dose: 0.78 mg/kg/injection, schedule: Q01DX009 (ip), vehicle: saline 97 % of control | dose: 1.56 mg/kg/injection, schedule: Q01DX009 (ip), vehicle: saline 97 % of control | dose: 3.13 mg/kg/injection, schedule: Q01DX009 (ip), vehicle: saline 101 % of control | dose: 6.25 mg/kg/injection, schedule: Q01DX009 (ip), vehicle: saline 96 % of control | [1] 118 % of control and 123 % of control | dose: 12.5 mg/kg/injection, schedule: Q01DX009 (ip), vehicle: saline 108 % of control | [2] 121 % of control | dose: 50.0 mg/kg/injection, schedule: Q01DX009 (ip), vehicle: Klucel (hydroxypropylcellulose) (HPC) 101 % of control and 122 % of control

O=C(N=Nc1ccccc1)Nc1ccc(Cl)cc1
inactive: dose: 50.0 mg/kg/injection, schedule: Q01DX005 (ip), vehicle: saline with Tween-80 100 % of control | dose: 100.0 mg/kg/injection, schedule: Q01DX005 (ip), vehicle: saline with Tween-80 100 % of control | dose: 200.0 mg/kg/injection, schedule: Q01DX005 (ip), vehicle: saline with Tween-80 90 % of control

CC1(C)[C@H]2Cc3c(ccc4c3C(=O)OC4=O)[C@@H]1C2
inactive: dose: 50.0 mg/kg/injection, schedule: Q01DX005 (ip), vehicle: Klucel + Tween-80 107 % of control | dose: 100.0 mg/kg/injection, schedule: Q01DX005 (ip), vehicle: Klucel + Tween-80 112 % of control

COc1ccc(C2CC(=O)CC2c2ccc(OC)cc2)cc1 (stereo unspecified)
inactive: dose: 50.0 mg/kg/injection, schedule: Q01DX001 (ip), vehicle: Klucel (hydroxypropylcellulose) (HPC) 99 % of control | dose: 100.0 mg/kg/injection, schedule: Q01DX001 (ip), vehicle: Klucel (hydroxypropylcellulose) (HPC) 100 % of control | dose: 200.0 mg/kg/injection, schedule: Q01DX001 (ip), vehicle: Klucel (hydroxypropylcellulose) (HPC) 100 % of control

C=C1[C@@H]2CC[C@@]3([C@@H](C2)[C@@]24CCC[C@@]5(C)CN(CCO)[C@@H]2O[C@@H]3C[C@H]54)[C@@H]1O
inactive: dose: 2.0 mg/kg/injection, schedule: Q01DX009 (ip), vehicle: Klucel (hydroxypropylcellulose) (HPC) 97 % of control | dose: 4.0 mg/kg/injection, schedule: Q01DX009 (ip), vehicle: Klucel (hydroxypropylcellulose) (HPC) 97 % of control | dose: 8.0 mg/kg/injection, schedule: Q01DX009 (ip), vehicle: Klucel (hydroxypropylcellulose) (HPC) 98 % of control | dose: 16.0 mg/kg/injection, schedule: Q01DX009 (ip), vehicle: Klucel (hydroxypropylcellulose) (HPC) 94 % of control

[Co].[N-]=C=S.[N-]=C=S.[N-]=C=S.[NH2-].[NH2-].[NH2-]
inactive: dose: 50.0 mg/kg/injection, schedule: Q01DX001 (ip), vehicle: saline with Tween-80 101 % of control | dose: 50.0 mg/kg/injection, schedule: Q01DX005 (ip), vehicle: saline 96 % of control | dose: 100.0 mg/kg/injection, schedule: Q01DX001 (ip), vehicle: saline with Tween-80 99 % of control and 94 % of control | dose: 100.0 mg/kg/injection, schedule: Q01DX005 (ip), vehicle: saline 113 % of control | dose: 200.0 mg/kg/injection, schedule: Q01DX001 (ip), vehicle: saline with Tween-80 98 % of control and 106 % of control | dose: 400.0 mg/kg/injection, schedule: Q01DX001 (ip), vehicle: saline with Tween-80 98 % of control

Source: PubChem BioAssay AID330 (DTP/NCI, 2004)
